For data set [1] the following is noted: 298.15 K; 101.33 kPa; Liquid; Vibrating tube method.
Data set [2] in a line: refractive index (Na D-line) (dimensionless). The note with it: 298.15 K; 101.33 kPa; Liquid; Standard Abbe refractometry.

Each structure is given as a SMILES string. ± gives the expanded uncertainty stated by the source.

As a reminder, the mass density is mass per unit of volume. What is called refractive index is a measure of how strongly the sample bends light.

As for `C=C(C)[C@H]1CC=C(C)CC1` [(R)-1-methyl-4-(1-methylethenyl)cyclohexene], the mass density in data set [1] is on record as 838.68 ± 1.4 kg/m3. For the same compound, the refractive index in data set [2] is on record as 1.47081 ± 0.00068.

Take `C=CC(C)(O)CCC=C(C)C` (stereo not given) [3,7-dimethyl-1,6-octadien-3-ol]: the mass density in data set [1] is 856.83 ± 1.4 kg/m3. Moreover, the refractive index in data set [2] was found to be 1.45961 ± 0.00068.

As for `CCn1cc[n+](C)c1.O=S(=O)([N-]S(=O)(=O)C(F)(F)F)C(F)(F)F`, the mass density in data set [1] was 1518.91 ± 0.36 kg/m3. In data set [2], the refractive index came out at 1.42298 ± 0.00068.

For `CCCCCC[n+]1ccn(C)c1.O=S(=O)([N-]S(=O)(=O)C(F)(F)F)C(F)(F)F`, the mass density in data set [1] is on record as 1372.09 ± 0.28 kg/m3. Moreover, in data set [2], the refractive index is 1.42879 ± 0.00033.

In the case of `CCCCCCCCCCn1cc[n+](C)c1.O=S(=O)([N-]S(=O)(=O)C(F)(F)F)C(F)(F)F`, in data set [1], the mass density was 1278.4 ± 0.23 kg/m3. Besides, the refractive index in data set [2] turned out to be 1.43584 ± 0.00033.

The record behind these values is the NIST ThermoML archive (doi:10.1021/je1011339).
